The assay deals with Thermo-Acidophilic Bacilli (Alicyclobacillus acidoterrestris ATCC 49025). The assay is described as follows: Evaluation of antibacterial action (agar plate dilution MIC). In kind it is cell-based. The method, then:
Thermo-Acidophilic Bacilli (Alicyclobacillus acidoterrestris ATCC 49025) were pre-incubated as test bacteria (conditions: YSG broth, 50±1° C., two days, aerobic conditions), so that a test bacterial solution was obtained. A 10 mg/mL xanthohumol solution and serial two-fold dilutions thereof were prepared using 99.5% ethanol. Each of the solution and dilutions was added to a medium (YSG agar medium) whose temperature is maintained at 50±1° C. after being sterilized and dissolved at a ratio of 1/99 (volume of xanthohumol solution/volume of medium solution) and mixed sufficiently. The resulting mixtures were each dispensed into a petri dish and solidified, whereby agar plate media were produced. Each of the agar plate media was smeared with the pre-incubated test bacterial solution, followed by incubation at 50±1° C. for five days under aerobic conditions. The lowest concentration where the growth of the bacteria was prevented was taken as the minimum inhibitory concentration (MIC).

Values after ≈ are worked out from the molar mass of the structure shown.

As usually defined, the MIC is the least concentration at which growth counts as inhibited.

Turning to `COc1cc(O)c(CC=C(C)C)c(O)c1C(=O)/C=C/c1ccc(O)cc1` [Xanthohumol], the “growth of Thermo-Acidophilic Bacilli” value is given as “inhibit the growth”. Besides, the MIC (ATCC49025, 120 h, YSG agar medium, 50±1° C., five days, aerobic conditions) was found to be 3.13 µg/mL (≈ 8.83 µM).
